# According to patent publication US20040086888A1, “Method for tandem genomic/proteomic analysis of proliferating cells” (priority 2003, published 2004):
# Experiments:
# [1] = tested on: human breast tumor cells; assay: Hormonal therapy inhibition of cell proliferation (Example 6); format: cell-based
# [2] = tested on: human brain tumor and human ovarian tumor cells; assay: Combined modality drug/radiation microtiter assay (Example 8); format: cell-based; conditions: Taxol 0.5-25.0 μM with 2 Gy, or Taxol 5 μM with 1 Gy-6 Gy; through five days post-treatment
# Method: Twenty-four hours post-plating, cells in the microtiter plate wells were exposed to the chemotherapeutic agent Taxol. One set of plates was designed to have escalating Taxol doses with (0.5-25.0 μM) with a fixed radiation dose (2 Gy). A second set of plates was designed to have a fixed Taxol dose (5 μM) with an escalating radiation dose (1 Gy-6 Gy). The cells in the plates were irradiated using a Siemans Stabilipan X-ray machine operating at 250 kVp, 15 mA with a dose rate of 75 rad/min.
# For each of the two treatment schema, cell number per well was monitored as a function of time through five days post-treatment. Cell number relative to controls was determined and survival curves were fit.
# [3] = tested on: human ovarian tumor cells; assay: Combination chemotherapy microtiter assay (Example 5); conditions: four tumor specimens
# [4] = tested on: tumor cells in culture; assay: Microtiter well assay of drug/radiation interaction (FIGS. 8A-8C); format: cell-based; conditions: Taxol 8.5 ng/ml or 42.5 ng/ml + 2 Gy and 4 Gy versus radiation-only
# Source text: The microtiter well assay is ideally suited for examination of the interaction of chemotherapeutic agents and radiation. Issues such as the differential sensitivity of drug/radiation combinations and the timing of drug/radiation combinations may be directly addressed with this system.
# [5] = tested on: epithelial tumor cell lines; assay: Immunoperoxidase staining for intermediate filaments; format: cell-based; conditions: immunoperoxidase technique, cells in culture
# Source text: (§1) The technique is practiced as follows. The same cell culturing and well distribution process is used as in the cytotoxicity assay described above, but rather than exposing the cells to chemotherapeutic or other agents, the cells are instead fixed and stained. With the stain or stain cocktail described below, the epithelial cells are identified by their intermediate filaments and/or specific membrane antigens by means of a monoclonal antibody immunoperoxidase technique. […] The fixed stained cells are then counted. If the specimen is positive for epithelial cells, the process is complete. If the specimen is negative for epithelial cells, an independent fixing and staining process is subsequently completed, with fresh cells from identical wells, using Vimentin as a stain to confirm the non-epithelial nature of the cells.
# (§2) Many tumor specimens will contain a mixture of cancer and normal cells. Although in many cases tumor cells will readily grow in tissue culture while the normal cells will not, it is important to be able to distinguish the two cell types. Using immunoperoxidase techniques to stain cells for various intermediate filaments, the differences between normal (fibroblast-like) cells and cells from epithelial tumors were characterized. These techniques can also be used to identify other tumor cell characteristics which may have prognostic value. […]
# [6] = tested on: fibroblast cell line; assay: as above; format: cell-based; conditions: immunoperoxidase technique, cells in culture
# Source text: as §1, §2
compound,measurement,setting,value
CC/C(=C(\c1ccccc1)c1ccc(OCCN(C)C)cc1)c1ccccc1 [Tamoxifen],inhibition of cell proliferation (cell number relative to control),"[1]; 10 nM to 20 μM, six doses, 24 h exposure, then 72 h incubation, four breast tumor specimens",two of the four breast specimens tested showed an inhibition of cell proliferation
same,concentration range in which the responses occurred,[1]; range tested 10 nM to 20 μM,mid-to-high
CC(=O)O[C@H]1C(=O)[C@@]2(C)[C@H]([C@H](OC(=O)c3ccccc3)[C@]3(O)C[C@H](OC(=O)[C@H](O)[C@@H](NC(=O)c4ccccc4)c4ccccc4)C(C)=C1C3(C)C)[C@]1(OC(C)=O)CO[C@@H]1C[C@@H]2O [Taxol],"cell killing in combination with radiation (cell number relative to controls, survival curves)",[2],Both additive and synergistic cell killing were noted
same,cell number relative to control,"[3]; escalating Taxol (1.0, 5.0, 25 μM) with fixed carboplatin (200 μM)",a dose response relationship was observed
same,effect on radiation response (survival rates),[4],enhancement of radiation response
N.N.O=C([O-])C1(C(=O)[O-])CCC1.[Pt+2] [carboplatin],cell number relative to control,"[3]; fixed Taxol (5 μM) with escalating carboplatin (50, 200, 1000 μM)",a dose response relationship was observed
Vimentin,staining of epithelial tumor cells,[5],mildly positive
same,staining of fibroblasts,[6],all fibroblast cells were positive
